Data as given in patent US20240408082A1, “METHODS FOR TREATING CANCERS AND TUMORS” (BEYONDSPRING PHARMACEUTICALS, INC., priority 2021, published 2024).

Key:
[1] = tested on: small cell lung cancer model LXFS 1129; test: 3D clonogenic assay, Example 2, LXFS 1129; assay type: cell-based
Procedure: (§1) The present study investigated plinabulin for anticancer activity ex vivo in 68 out of 71 originally planned patient-derived xenograft (PDX) models representing major cancer types. Experiments were performed using a 3D clonogenic assay in a 96-well format with colony count based on image analysis as a read-out. By using this assay, the investigational compound was assessed for the ability to inhibit anchorage independent growth and ex vivo colony formation of tumor cells in semi-solid medium.
(§2) A master stock solution of plinabulin was prepared by dissolving the compound in DMSO at a concentration of 9.9 mM. Working stock solutions were prepared by diluting the master stock solution with DMSO to a concentration of 0.99 mM (330-fold the highest test concentration). Small aliquots of the master and working stock were stored at −20° C. […]
(§3) Plinabulin was investigated in 68 PDX models representing a number of cancer types. […] The percentage of viable cells was determined in a Neubauer-hemocytometer using trypan blue exclusion. […]
(§4) The clonogenic assay was carried out in a 96 well plate format using ultra low attachment plates. […] Cultures were incubated at 37° C. and 7.5% CO2 in a humidified atmosphere 13 days in total and monitored closely for colony growth using an inverted microscope. […]

osteosarcoma = test: 3D clonogenic assay, Example 2, osteosarcoma; assay type: cell-based; settings: n=3 models
Procedure: as §1, §2, §3, §4

What does the source list for CC(C)(C)c1[nH]cnc1/C=c1\[nH]c(=O)/c(=C/c2ccccc2)[nH]c1=O [plinabulin, (3Z,6Z)-3-Benzylidene-6-{[5-(2-methyl-2-propanyl)-1H-imidazol-4-yl]methylene}-2,5-piperazinedione]?
abs. IC70 [1]: 32 nM; geom. mean abs. IC70 (osteosarcoma): 624 nM; IC50 (osteosarcoma; read-out: geom. mean abs. IC50): 117 nM
